Measured values as given in the supplement of paper PMC10920090.

Experiments:
MDA-MB-231 [1] = experiment: drug sensitivity score (DSS), cytotoxicity CellTox Green; higher = more cytotoxic; extreme values may be limits of the assay; details: 72 h
MDA-MB-231 [2] = experiment: drug sensitivity score (DSS), cell viability CellTiter-Glo; higher = more sensitive; extreme values may be limits of the assay; details: 72 h
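Throughout, for drug sensitivity score (DSS), cytotoxicity CellTox Green: DSS summarises each dose–response curve by combining IC50, EC50, maximal inhibition and efficacy across drug concentrations.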

Q: C[C@@H]1C[C@H]2O[C@@H]2/C=C\C=C\C(=O)Cc2c(Cl)c(O)cc(O)c2C(=O)O1 [Radicicol] was tested. Which drug sensitivity score (MDA-MB-231 [1]; shRNA: shPPFIA1_1) did it give?
A: 0 DSS

Q: What about the drug sensitivity score (MDA-MB-231 [1]; shRNA: shScramble) of the same compound?
A: 1.9 DSS

Q: What about the drug sensitivity score (MDA-MB-231 [2]; shRNA: shPPFIA1_1) of the same compound?
A: 2 DSS

Q: What about the drug sensitivity score (MDA-MB-231 [2]; shRNA: shScramble) of the same compound?
A: 6.4 DSS

Q: What does the source list for NCC(=O)Nc1ccc(-n2nc(C(F)(F)F)cc2-c2ccc3c(ccc4ccccc43)c2)cc1?
A: drug sensitivity score (MDA-MB-231 [1]; shRNA: shPPFIA1_1): 8 DSS; drug sensitivity score (MDA-MB-231 [1]; shRNA: shScramble): 7.3 DSS; drug sensitivity score (MDA-MB-231 [2]; shRNA: shPPFIA1_1): 5 DSS; drug sensitivity score (MDA-MB-231 [2]; shRNA: shScramble): 8.7 DSS

Q: For CC(C)N(CCCNC(=O)Nc1ccc(C(C)(C)C)cc1)C[C@H]1O[C@@H](n2cc(Br)c3c(N)ncnc32)[C@H](O)[C@@H]1O [SGC0946], which drug sensitivity score (MDA-MB-231 [1]; shRNA: shPPFIA1_1) is on record?
A: 5.5 DSS

Q: And the drug sensitivity score (MDA-MB-231 [1]; shRNA: shScramble)?
A: 0.6 DSS

Q: And the drug sensitivity score (MDA-MB-231 [2]; shRNA: shPPFIA1_1)?
A: 5 DSS

Q: And the drug sensitivity score (MDA-MB-231 [2]; shRNA: shScramble)?
A: 1.5 DSS

Q: For CC(C)(C)Cn1c(N)nc2ccc(-c3[nH]c(C(C)(C)C)nc3-c3ccc(F)cc3)nc21 [Ralimetinib], which drug sensitivity score (MDA-MB-231 [1]; shRNA: shPPFIA1_1) is on record?
A: 0 DSS

Q: What about the drug sensitivity score (MDA-MB-231 [1]; shRNA: shScramble) of the same compound?
A: 0 DSS

Q: And the drug sensitivity score (MDA-MB-231 [2]; shRNA: shPPFIA1_1)?
A: 0.2 DSS

Q: What about the drug sensitivity score (MDA-MB-231 [2]; shRNA: shScramble) of the same compound?
A: 0 DSS

Q: How did the drug sensitivity score (MDA-MB-231 [1]; shRNA: shPPFIA1_1) turn out when COc1cc2c(Oc3ccc(NC(=O)C4(C(=O)Nc5ccc(F)cc5)CC4)cc3F)ccnc2cc1OCCCN1CCOCC1 [Foretinib] was run?
A: 0 DSS

Q: What about the drug sensitivity score (MDA-MB-231 [1]; shRNA: shScramble) of the same compound?
A: 0 DSS

Q: What about the drug sensitivity score (MDA-MB-231 [2]; shRNA: shPPFIA1_1) of the same compound?
A: 0 DSS

Q: What about the drug sensitivity score (MDA-MB-231 [2]; shRNA: shScramble) of the same compound?
A: 2.2 DSS

Q: With CN1CCN(C2CCN(C(=O)Nc3cc(Oc4ccc(NC(=O)C5(C(=O)Nc6ccc(F)cc6)CC5)c(F)c4)ccn3)CC2)CC1 [Golvatinib] as the compound, how does the drug sensitivity score (MDA-MB-231 [1]; shRNA: shPPFIA1_1) read?
A: 0 DSS

Q: What about the drug sensitivity score (MDA-MB-231 [1]; shRNA: shScramble) of the same compound?
A: 0 DSS

Q: And the drug sensitivity score (MDA-MB-231 [2]; shRNA: shPPFIA1_1)?
A: 0.2 DSS

Q: What about the drug sensitivity score (MDA-MB-231 [2]; shRNA: shScramble) of the same compound?
A: 2 DSS

Q: Which results are given for COc1ccccc1S(=O)(=O)Nc1ccc2c(c1)CN(C)C(=O)N2 [PFI-1]?
A: drug sensitivity score (MDA-MB-231 [1]; shRNA: shPPFIA1_1): 0 DSS; drug sensitivity score (MDA-MB-231 [1]; shRNA: shScramble): 0 DSS; drug sensitivity score (MDA-MB-231 [2]; shRNA: shPPFIA1_1): 1.4 DSS; drug sensitivity score (MDA-MB-231 [2]; shRNA: shScramble): 4.4 DSS

Q: How did the drug sensitivity score (MDA-MB-231 [1]; shRNA: shPPFIA1_1) turn out when Cc1nc(-c2cn3c(n2)-c2ccc(-c4cnn(C(C)(C)C(N)=O)c4)cc2OCC3)n(C(C)C)n1 [Taselisib] was run?
A: 0 DSS

Q: And the drug sensitivity score (MDA-MB-231 [1]; shRNA: shScramble)?
A: 0 DSS

Q: And the drug sensitivity score (MDA-MB-231 [2]; shRNA: shPPFIA1_1)?
A: 0 DSS

Q: What about the drug sensitivity score (MDA-MB-231 [2]; shRNA: shScramble) of the same compound?
A: 0.9 DSS

Q: Which drug sensitivity score (MDA-MB-231 [1]; shRNA: shPPFIA1_1) does the source give for O=C(O)C(=O)O.[NH-][C@@H]1CCCC[C@H]1[NH-].[Pt+2] [Oxaliplatin] here?
A: 0 DSS

Q: And the drug sensitivity score (MDA-MB-231 [1]; shRNA: shScramble)?
A: 0 DSS

Q: And the drug sensitivity score (MDA-MB-231 [2]; shRNA: shPPFIA1_1)?
A: 0 DSS

Q: And the drug sensitivity score (MDA-MB-231 [2]; shRNA: shScramble)?
A: 2 DSS

Q: Which drug sensitivity score (MDA-MB-231 [1]; shRNA: shPPFIA1_1) does the source give for CC(C)c1cc(C(=O)N2Cc3ccc(CN4CCN(C)CC4)cc3C2)c(O)cc1O [Onalespib] here?
A: 0 DSS

Q: What about the drug sensitivity score (MDA-MB-231 [1]; shRNA: shScramble) of the same compound?
A: 2.6 DSS

Q: What about the drug sensitivity score (MDA-MB-231 [2]; shRNA: shPPFIA1_1) of the same compound?
A: 13.6 DSS

Q: What about the drug sensitivity score (MDA-MB-231 [2]; shRNA: shScramble) of the same compound?
A: 10.6 DSS

Q: What does the source list for CN(C)C(=O)c1ccc(S(=O)(=O)c2ccc(NC(=O)[C@@](C)(O)C(F)(F)F)c(Cl)c2)cc1 [AZD7545]?
A: drug sensitivity score (MDA-MB-231 [1]; shRNA: shPPFIA1_1): 0 DSS; drug sensitivity score (MDA-MB-231 [1]; shRNA: shScramble): 0 DSS; drug sensitivity score (MDA-MB-231 [2]; shRNA: shPPFIA1_1): 3.6 DSS; drug sensitivity score (MDA-MB-231 [2]; shRNA: shScramble): 0 DSS

Q: COc1cc2nccc(Oc3ccc(NC(=O)NC4CC4)c(Cl)c3)c2cc1C(N)=O [Lenvatinib] was tested. Which drug sensitivity score (MDA-MB-231 [1]; shRNA: shPPFIA1_1) did it give?
A: 0 DSS

Q: And the drug sensitivity score (MDA-MB-231 [1]; shRNA: shScramble)?
A: 0 DSS

Q: And the drug sensitivity score (MDA-MB-231 [2]; shRNA: shPPFIA1_1)?
A: 0 DSS

Q: What about the drug sensitivity score (MDA-MB-231 [2]; shRNA: shScramble) of the same compound?
A: 0 DSS

Q: How did the drug sensitivity score (MDA-MB-231 [1]; shRNA: shPPFIA1_1) turn out when CCN(CC)CCOc1ccc(C(=C(Cl)c2ccccc2)c2ccccc2)cc1 [Clomifene] was run?
A: 7.9 DSS

Q: And the drug sensitivity score (MDA-MB-231 [1]; shRNA: shScramble)?
A: 6.1 DSS

Q: And the drug sensitivity score (MDA-MB-231 [2]; shRNA: shPPFIA1_1)?
A: 3.7 DSS

Q: What about the drug sensitivity score (MDA-MB-231 [2]; shRNA: shScramble) of the same compound?
A: 5.1 DSS

Q: Which results are given for COc1cc2c(Oc3ccc4[nH]c(C)cc4c3F)ncnc2cc1OCCCN1CCCC1 [Cediranib]?
A: drug sensitivity score (MDA-MB-231 [1]; shRNA: shPPFIA1_1): 0 DSS; drug sensitivity score (MDA-MB-231 [1]; shRNA: shScramble): 0 DSS; drug sensitivity score (MDA-MB-231 [2]; shRNA: shPPFIA1_1): 7 DSS; drug sensitivity score (MDA-MB-231 [2]; shRNA: shScramble): 7.5 DSS

Q: With Cc1cc(C)c(/C=C2\C(=O)Nc3ccccc32)[nH]1 [Semaxanib] as the compound, how does the drug sensitivity score (MDA-MB-231 [1]; shRNA: shPPFIA1_1) read?
A: 0.2 DSS

Q: What about the drug sensitivity score (MDA-MB-231 [1]; shRNA: shScramble) of the same compound?
A: 3.5 DSS

Q: What about the drug sensitivity score (MDA-MB-231 [2]; shRNA: shPPFIA1_1) of the same compound?
A: 0 DSS

Q: And the drug sensitivity score (MDA-MB-231 [2]; shRNA: shScramble)?
A: 0 DSS

Q: N.N.[Cl][Pt][Cl] [Cisplatin] was tested. Which drug sensitivity score (MDA-MB-231 [1]; shRNA: shPPFIA1_1) did it give?
A: 4 DSS

Q: What about the drug sensitivity score (MDA-MB-231 [1]; shRNA: shScramble) of the same compound?
A: 3.5 DSS

Q: And the drug sensitivity score (MDA-MB-231 [2]; shRNA: shPPFIA1_1)?
A: 2 DSS

Q: And the drug sensitivity score (MDA-MB-231 [2]; shRNA: shScramble)?
A: 7.6 DSS

Q: Which results are given for O=C(CCCCCCC(=O)Nc1ccc([C@H]2O[C@@H](CSc3nc(-c4ccccc4)c(-c4ccccc4)o3)C[C@@H](c3ccc(CO)cc3)O2)cc1)NO [Tubacin]?
A: drug sensitivity score (MDA-MB-231 [1]; shRNA: shPPFIA1_1): 7.2 DSS; drug sensitivity score (MDA-MB-231 [1]; shRNA: shScramble): 2.2 DSS; drug sensitivity score (MDA-MB-231 [2]; shRNA: shPPFIA1_1): 7.3 DSS; drug sensitivity score (MDA-MB-231 [2]; shRNA: shScramble): 5 DSS
